Laboratory results taken from article PMC6123676, “Androgen receptor degradation by the proteolysis-targeting chimera ARCC-4 outperforms enzalutamide in cellular models of prostate cancer drug resistance” (Communications Biology, 2018).
Where two headings read alike, the source gives them in different places.

What was measured:
androgen receptor [1] = biological target: T1, androgen receptor (Homo sapiens, UniProt P10275); assay: competition radioligand binding with [3H]R1881 (LNCaP cell lysate); set-up: gene AR; AR in LNCaP cell lysates
Target sequence in this assay (P10275 whole entry): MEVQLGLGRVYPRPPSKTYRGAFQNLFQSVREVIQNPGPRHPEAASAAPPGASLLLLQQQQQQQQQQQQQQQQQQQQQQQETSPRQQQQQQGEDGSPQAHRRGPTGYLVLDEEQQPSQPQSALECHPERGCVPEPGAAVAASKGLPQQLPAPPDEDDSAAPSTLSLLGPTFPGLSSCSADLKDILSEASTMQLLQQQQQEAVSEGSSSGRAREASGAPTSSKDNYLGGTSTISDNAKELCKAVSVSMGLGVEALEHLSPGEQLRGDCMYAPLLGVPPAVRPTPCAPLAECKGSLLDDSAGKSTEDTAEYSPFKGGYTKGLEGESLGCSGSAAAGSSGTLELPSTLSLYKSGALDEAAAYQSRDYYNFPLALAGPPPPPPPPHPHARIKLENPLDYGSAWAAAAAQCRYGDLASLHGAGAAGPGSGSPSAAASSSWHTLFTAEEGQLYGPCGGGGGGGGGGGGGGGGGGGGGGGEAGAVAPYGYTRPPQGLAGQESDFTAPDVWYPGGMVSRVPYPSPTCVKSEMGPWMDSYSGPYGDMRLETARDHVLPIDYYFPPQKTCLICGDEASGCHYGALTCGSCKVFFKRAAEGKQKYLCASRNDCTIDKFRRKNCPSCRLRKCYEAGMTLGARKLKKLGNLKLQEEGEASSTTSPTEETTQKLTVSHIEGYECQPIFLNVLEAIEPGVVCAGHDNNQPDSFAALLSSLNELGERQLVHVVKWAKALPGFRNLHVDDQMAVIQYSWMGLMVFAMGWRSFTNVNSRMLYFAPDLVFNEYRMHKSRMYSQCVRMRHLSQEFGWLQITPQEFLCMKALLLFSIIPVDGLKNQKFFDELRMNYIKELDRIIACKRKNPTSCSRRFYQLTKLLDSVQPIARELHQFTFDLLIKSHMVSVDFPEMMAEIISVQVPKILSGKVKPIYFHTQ

von Hippel-Lindau (VHL) = biological target: T2, von Hippel-Lindau (VHL) (Homo sapiens, UniProt P40337); assay: AR degradation lost on VHL knockdown and with the non-VHL-binding epimer; format: cell-based
T2 construct: endogenous VHL in VCaP cells; with androgen receptor
T2 sequence (P10275 whole entry): as above
T2 sequence (P40337 whole entry): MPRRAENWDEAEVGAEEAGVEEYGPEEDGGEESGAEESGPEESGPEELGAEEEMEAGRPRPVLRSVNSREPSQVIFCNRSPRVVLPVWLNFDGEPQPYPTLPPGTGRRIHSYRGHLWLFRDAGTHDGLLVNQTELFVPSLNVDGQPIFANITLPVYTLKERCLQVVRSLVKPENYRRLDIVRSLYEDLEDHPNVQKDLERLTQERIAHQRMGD

androgen receptor [2] = biological target: T1, androgen receptor; assay: degradation of AR in VCaP cells, western blot (DC50; Dmax […]); format: cell-based; set-up: gene AR; endogenous AR in VCaP cells
Target sequence in this assay (P10275 whole entry): as the sequence (P10275 whole entry) above

androgen receptor [3] = biological target: T1, androgen receptor; set-up: gene AR
Target sequence in this assay (P10275 whole entry): as above

androgen receptor [4] = biological target: T1, androgen receptor; assay: PROTAC degradation of AR in VCaP cells, western blot (Dmax); format: cell-based; set-up: gene AR; endogenous AR in VCaP cells; with VHL
Target sequence in this assay (P40337 whole entry): as the sequence (P40337 whole entry) above
Target sequence in this assay (P10275 whole entry): as the sequence (P10275 whole entry) above

Compound: Cc1ncsc1-c1ccc(CNC(=O)[C@@H]2C[C@@H](O)CN2C(=O)[C@@H](NC(=O)COCCCCOc2ccc(-c3ccc(N4C(=S)N(c5ccc(C#N)c(C(F)(F)F)c5)C(=O)C4(C)C)cc3)cc2)C(C)(C)C)cc1 [2c, ARCC-4]
- IC50 (androgen receptor [1]; read-out: IC50): 36 nM
- AR degradation lost on VHL knockdown and with the non-VHL-binding epimer (von Hippel-Lindau (VHL)): confirmed that ARCC-4-mediated AR degradation is dependent upon VHL recruitment and binding

Compound: CC1(C)C(=O)N(c2ccc(C#N)c(C(F)(F)F)c2)C(=S)N1CCCC(=O)NCCOCCOC(=O)CC12CC3CC(CC(C3)C1)C2 [SARD279]
- DC50 (androgen receptor [2]): 1100 nM

Compound: C[C@]1(O)CC[C@H]2[C@@H]3CCC4=CC(=O)CCC4=C3C=C[C@@]21C [R1881]
- radioligand of the AR binding assay; also out-competes ARCC-4 in VCaP cells (androgen receptor [3]): AR radioligand binding assay to determine the IC50 values for inhibiting binding between AR and (^3H) R1881

Compound: Cc1ncsc1-c1ccc(CNC(=O)[C@@H]2C[C@H](O)CN2C(=O)[C@@H](NC(=O)COCCCCOc2ccc(-c3ccc(N4C(=S)N(c5ccc(C#N)c(C(F)(F)F)c5)C(=O)C4(C)C)cc3)cc2)C(C)(C)C)cc1 (mixture of isomers) [compound 3, epimer]
- IC50 (androgen receptor [1]): 41 nM

Compound: Cc1ncsc1-c1ccc(CNC(=O)[C@@H]2C[C@@H](O)CN2C(=O)[C@@H](NC(=O)COCCOCCOCCOc2ccc(N3C(=S)N(c4ccc(C#N)c(C(F)(F)F)c4)C(=O)C3(C)C)cc2)C(C)(C)C)cc1 [2a]
- Dmax (androgen receptor [4]): 47%
